Results as given in paper PMC11459959, “Discovery of new acetamide derivatives of 5-indole-1,3,4-oxadiazol-2-thiol as inhibitors of HIV-1 Tat-mediated viral transcription” (Antimicrobial Agents and Chemotherapy, 2024).

Columns and labels:
HIV-1 transcripts = test: RNA-seq of HIV-1 transcripts in infected TZM-bl cells; assay type: cell-based; details: HIV-1NL4-3 MOI 1, 1.5 µM, 2 days
Description: At 48 h after infection, the total RNA was extracted using the Maxwell RSC simplyRNA Cells Kit (Promega) according to the manufacturer’s instructions. RNA integrity was evaluated as RNA integrity number >6 using the Agilent 2100 Bio-analyzer (Agilent Technologies, Santa Clara, CA, USA). The cDNA libraries were constructed using TruSeq Stranded mRNA Sample Preparation Kit (Illumina, San Diego, CA, USA) according to the manufacturer’s instructions. Subsequently, these cDNA libraries were sequenced on the Illumina sequencing platform (NovaSeq6000; Illumina) and 150 bp paired-end reads were generated. Trimmomatic (v.0.32) was used to eliminate low-quality reads and adapter sequences from the sequencing data ([64]). Subsequently, the filtered reads were aligned to the HIV-1 genome (accession: AF324493.2) using STAR (v.2.3.0) ([65]). RT-qPCR analyses were performed as previously described ([66]) with some minor modifications. […] After infection, the infected cells were treated with 1.5 µM of the compounds. Forty-eight hours after treatment, the viral mRNA was isolated, converted to cDNA, and quantified through RT-qPCR on a 7500 Real-Time PCR System (Applied Biosystems) using the Power SYBR Green PCR Master Mix (Applied Biosystems). The comparative cycle threshold (Ct) method was used to analyze relative changes (Δ) in gene expression. The ΔCt values were determined using a 7500 Real-Time PCR System Software (Applied Biosystems) normalizing with gapdh, and the gene expression was calculated using the ΔΔCt-method. The primers used in this assay are the following: gag forward, 5′-[…]-3′, gag reverse, 5′-[…]-3′; gapdh forward, 5′-[…]-3′, gapdh reverse, 5′-[…]-3′.

Tat protein = Tat protein level in transfected HeLa cells, western blotting; details: HeLa cells transfected with pcDNA3-Flag-Tat86, 1.5 µM, 2 days
Description: (C) HeLa cells were transfected with pcDNA3-Flag-Tat86 plasmid. […] The levels of Tat protein were analyzed by western blotting using antibodies against Flag and α-tubulin.
The protein levels of the cell lysates were analyzed using western blotting as previously described ([12]). In brief, whole-cell lysates and samples fractionated in nuclear or cytoplasm were prepared with a 5× SDS sample buffer and subsequently subjected to SDS-polyacrylamide gel electrophoresis. Proteins were subsequently transferred onto polyvinylidene difluoride membranes (Millipore).

[1] = test system: PI-resistant HIV-1 strain 11803; test: microbe, parasite or virus in culture; assay type: cell-based; details: Human immunodeficiency virus 1, TZM-bl
[2] = test system: NRTI-resistant HIV-1 strain 7406; test: microbe, parasite or virus in culture; assay type: cell-based; details: Human immunodeficiency virus 1, TZM-bl
[3] = test system: NRTI-resistant HIV-1 strain 7407; test: microbe, parasite or virus in culture; assay type: cell-based; details: Human immunodeficiency virus 1, TZM-bl
[4] = test system: PI-resistant HIV-1 strain 11800; test: microbe, parasite or virus in culture; assay type: cell-based; details: Human immunodeficiency virus 1, TZM-bl
[5] = test system: NRTI-resistant HIV-1 strain 7396; test: microbe, parasite or virus in culture; assay type: cell-based; details: Human immunodeficiency virus 1, TZM-bl
HIV-1NL4-3 = test: HIV-1 infectivity in TZM-bl cells (β-gal activity); assay type: cell-based; details: Human immunodeficiency virus 1, TZM-bl, 48 h, read-out: EC50 (β-gal)
Description: (C) TZM-bl cells were infected with the HIV-1NL4-3 strain at an MOI of 1 upon treatment of compounds. At 48 h after infection, the viral infectivity and cell viability were determined as described above (Fig. 1). […] (E) TZM-bl cells were infected with the HIV-1NL4-3 at an MOI of 1 upon compound 13. At 48 h after infection, the β-gal activity indicating viral infectivity was determined using the β-gal Enzyme Assay kit. […] (C and E) The dose-response curves show the relative activity compared with that of the DMSO vehicle (mean ± SD; n = 3).
The TZM-bl cells (also referred to as JC53BL-13) expressing human CD4, CXCR4, and CCR5 carrying the F-Luc and lacZ genes downstream of the HIV-1 LTR promoter ([60]) were used to determine the inhibitory effect of the compounds on HIV-1 infection, as previously described ([11], [12], [61]). In brief, 1 × 10^4 cells were cultured in 96-well plates for 24 h and subsequently treated with compounds at the indicated concentrations. […] After 48 h, the inhibitory effect of the compounds was determined using a Bright Glo luciferase assay kit (Promega) or β-Galactosidase Enzyme Assay kit (Promega). […] Cell viability was determined using the resazurin-based PrestoBlue Cell Viability Reagent (Thermo Fisher Scientific, Waltham, MA, USA) following the manufacturer’s instructions.

| SMILES | read counts of transcripts mapped to the HIV-1 genome (HIV-1 transcripts) | decrease of expression of Tat protein (Tat protein) | EC50 [1] [µM] | EC50 [2] [µM] | EC50 [3] [µM] | EC50 [4] [µM] | EC50 [5] [µM] | EC50 (HIV-1NL4-3) [µM] |
| --- | --- | --- | --- | --- | --- | --- | --- | --- |
| Cc1[nH]c2ccc(-c3nnc(SCC(=O)N4CCCCC4)o3)cc2c1C [Compound 9, 2-((5-(2,3-Dimethyl-1H-indol-5-yl)-1,3,4-oxadiazol-2-yl)thio)-1-(piperidin-1-yl)ethan-1-one] | substantially reduced | did not exhibit a decrease | 0.07 ± 0.01 | 0.09 ± 0.01 | 0.07 ± 0.01 | 0.08 ± 0.01 | 0.07 | – |
| Cc1[nH]c2ccc(-c3nnc(SCC(=O)N4CCCC4)o3)cc2c1C [Compound 13, 2-((5-(2,3-Dimethyl-1H-indol-5-yl)-1,3,4-oxadiazol-2-yl)thio)-1-(pyrrolidin-1-yl)ethan-1-one] | substantially reduced | did not exhibit a decrease | 0.16 ± 0.02 | 0.16 ± 0.02 | 0.19 ± 0.01 | 0.13 ± 0.1 | 0.15 ± 0.01 | 0.22 ± 0.03 |
